Columns and labels:
[1] = target: T1, recombinant human ACC2 (rhACC2) (Homo sapiens, UniProt O00763, V2141I); assay: recombinant hACC2 Transcreener assay (direct inhibition of ACC2 activity); format: biochemical; settings: Transcreener ADP detection FP assay, 50 μM ATP, 30 μM acetyl-CoA, 50 min at 25° C.
T1 construct: a full length Cytomax clone of ACC2 was purchased from Cambridge Bioscience Limited; made in house; host or cells: CHO cells (tetracycline-induced, pcDNA5 FRT TO-TOPO)
Experimental: For example direct inhibition of ACC activity, for the compound of Formula (1) was determined using preparations of recombinant human ACC1 (rhACC1) and recombinant human ACC2 (rhACC2). Representative sequences of the recombinant human ACC1 and ACC2 that can be used in the assay are provided in FIG. 1 (SEQ ID NO. 1) and FIG. 2 (SEQ. ID NO. 2), respectively.
[3] Preparation of rhACC2. Human ACC2 inhibition was measured using purified recombinant human ACC2 (hrACC2). Briefly, a full length Cytomax clone of ACC2 was purchased from Cambridge Bioscience Limited and was sequenced and subcloned into PcDNA5 FRT TO-TOPO (Invitrogen, Carlsbad, Calif.). The ACC2 was expressed in CHO cells by tetracycline induction and harvested in 5 liters of DMEM/F12 with glutamine, biotin, hygromycin and blasticidin with 1 μg/mL tetracycline (Invitrogen, Carlsbad, Calif.). The conditioned medium containing ACC2 was then applied to a Softlink Soft Release Avidin column (Promega, Madison, Wis.) and eluted with 5 mM biotin. 4 mgs of ACC2 were eluted at a concentration of 0.05 mg/mL (determined by A280) with an estimated purity of 95% ([…]). The purified ACC2 was dialyzed in 50 mM Tris, 200 mM NaCl, 4 mM DTT, 2 mM EDTA, and 5% glycerol. The pooled protein was frozen and stored at −80° C., with no loss of activity upon thawing. For measurement of ACC2 activity and assessment of ACC2 inhibition, test compounds were dissolved in DMSO and added to the rhACC2 enzyme as a 5× stock with a final DMSO concentration of 1%.
[4] Measurement of human ACC2 inhibition. hACC2 was assayed in a Costar #3676 (Costar, Cambridge, Mass.) 384-well plate using the Transcreener ADP detection FP assay kit (Bellbrook Labs, Madison, Wisconsin) using the manufacturer's recommended conditions for a 50 uM ATP reaction. The final conditions for the assay were 50 mM HEPES, pH 7.2, 5 mM MgCl2, 5 mM tripotassium citrate, 2 mM DTT, 0.1 mg/mL BSA, 30 μM acetyl-CoA, 50 μM ATP, and 8 mM KHCO3 Typically, a 10 μl reaction was run for 50 min at 25° C., and 10 μl of Transcreener stop and detect buffer was added and the combination incubated at room temp for an additional 1 hour. The data was acquired on an Envision Fluorescence reader (Perkinelmer) using a 620 excitation Cy5 FP general dual mirror, 620 excitation Cy5 FP filter, 688 emission (S) and a 688 (P) emission filter.

[2] = target: T2, recombinant human ACC1 (rhACC1) (Homo sapiens, UniProt Q13085, DEL44-44); assay: recombinant hACC1 Transcreener assay (direct inhibition of ACC1 activity); format: biochemical; settings: Transcreener ADP detection FP assay, 50 μM ATP, 30 μM acetyl-CoA, 120 min at 25° C.
T2 construct: recombinant baculovirus containing full length human ACC1 cDNA; made in house; host or cells: SF9 insect cells (baculovirus)
Experimental: For example direct inhibition of ACC activity, for the compound of Formula (1) was determined using preparations of recombinant human ACC1 (rhACC1) and recombinant human ACC2 (rhACC2). Representative sequences of the recombinant human ACC1 and ACC2 that can be used in the assay are provided in FIG. 1 (SEQ ID NO. 1) and FIG. 2 (SEQ. ID NO. 2), respectively. Preparation of rhACC1. Two liters of SF9 cells, infected with recombinant baculovirus containing full length human ACC1 cDNA, were suspended in ice-cold lysis buffer (25 mM Tris, pH 7.5; 150 mM NaCl; 10% glycerol; 5 mM imidazole (EMD Bioscience; Gibbstown, N.J.); 2 mM TCEP (BioVectra; Charlottetown, Canada); Benzonase nuclease (10000 U/100 g cell paste; Novagen; Madison, Wis.); EDTA-free protease inhibitor cocktail (1 tab/50 mL; Roche Diagnostics; Mannheim, Germany). Cells were lysed by 3 cycles of freeze-thaw and centrifuged at 40,000×g for 40 minutes (4° C.). Supernatant was directly loaded onto a HisTrap FF crude column (GE Healthcare; Piscataway, N.J.) and eluted with an imidazole gradient up to 0.5 M over 20 column volumes (CV). ACC1-containing fractions were pooled and diluted 1:5 with 25 mM Tris, pH 7.5, 2 mM TCEP, 10% glycerol and direct loaded onto a CaptoQ (GE Healthcare) column and eluted with an NaCl gradient up to 1 M over 20 CV's. Phosphate groups were removed from purified ACC1 by incubation with lambda phosphatase (100 U/10 μM target protein; New England Biolabs; Beverly, Mass.) for 14 hours at 4° C.; okadaic acid was added (1 μM final concentration; Roche Diagnostics) to inhibit the phosphatase. Purified ACC1 was exchanged into 25 mM Tris, pH 7.5, 2 mM TCEP, 10% glycerol, 0.5 M NaCl by 6 hour dialysis at 4° C. Aliquots were prepared and frozen at −80° C. […] The final conditions for the assay were 50 mM HEPES, pH 7.2, 10 mM MgCl2, 7.5 mM tripotassium citrate, 2 mM DTT, 0.1 mg/mL BSA, 30 μM acetyl-CoA, 50 μM ATP, and 10 mM KHCO3 Typically, a 10 μl reaction was run for 120 min at 25° C., and 10 μl of Transcreener stop and detect buffer was added and the combination incubated at room temp for an additional 1 hour. The data was acquired on a Envision Fluorescence reader (Perkinelmer) using a 620 excitation Cy5 FP general dual mirror, 620 excitation Cy5 FP filter, 688 emission (S) and a 688 (P) emission filter.

Structure (SMILES) | IC50 [1] | IC50 [2]
CC(C)n1ncc2c1C(=O)CC1(CCN(C(=O)c3cc(Cl)c4cn[nH]c4c3)CC1)C2 [Example 2A-65] | 51.5 nM | 74.9 nM
CC(C)n1ncc2c1C(=O)CC1(CCN(C(=O)c3cnc4cc[nH]c4c3)CC1)C2 [Example 2A-19] | 22.1 nM | 57.4 nM
CC(C)(C)n1ncc2c1C(=O)CC1(CCN(C(=O)c3ccc4cn[nH]c4c3)CC1)C2 [Example 11A-74] | 16.8 nM | 23.7 nM
CC(C)n1ncc2c1C(=O)CC1(CCN(C(=O)c3ccn4cncc4c3)CC1)C2 [Example 11A-60] | 171 nM | 404 nM
CC(C)(C)n1ncc2c1C(=O)CC1(CCN(C(=O)c3ccc4[nH]cnc4c3)CC1)C2 [Example 2A-32] | 28.6 nM | 37 nM
CC(C)n1ncc2c1C(=O)CC1(CCN(C(=O)c3c[nH]c4c(cnn4C)c3=O)CC1)C2 [Example 11A-66] | 1390 nM | 4080 nM
CC(C)n1ncc2c1C(=O)CC1(CCN(C(=O)c3ccc4[nH]c(=O)[nH]c4c3)CC1)C2 [Example 2A-33] | 14.5 nM | 53.7 nM
CC(C)(C)n1ncc2c1C(=O)CC1(CCN(C(=O)c3ccc(-n4cccn4)nc3)CC1)C2 [Example 11A-59] | 80.1 nM | 86.8 nM
Cc1nc2c(F)cc(C(=O)N3CCC4(CC3)CC(=O)c3c(cnn3C(C)C)C4)cc2[nH]1 [Example 2A-54] | 51.5 nM | 214 nM
CC(C)n1ncc2c1C(=O)C(C)C1(CCN(C(=O)c3ccc4[nH]ncc4c3)CC1)C2 (single isomer, unassigned; (+)) [Example 5A-1, (+)-1′-(1H-indazole-5-carbonyl)-1-isopropyl-6-methyl-4,6-dihydrospiro[indazole-5,4′-piperidin]-7(1H)-one] | 866 nM | 4480 nM
CC(C)(C)n1ncc2c1C(=O)CC1(CCN(C(=O)c3ccc(N4CCOCC4)cn3)CC1)C2 [Example 11A-57] | 2330 nM | 9230 nM
Cc1cc(C(=O)N2CCC3(CC2)CC(=O)c2c(cnn2C(C)(C)C)C3)n(-c2cccnc2)n1 [Example 11A-5] | 13200 nM | 16400 nM
CC(C)n1ncc2c1C(=O)CC1(CCN(C(=O)c3ccc4[nH]ncc4c3)CC1)C2 [Example 10A-1, 1′-(1H-indazole-5-carbonyl)-1-isopropyl-4,6-dihydrospiro[indazole-5,4′-piperidin]-7(1H)-one] | 22.3 nM | 43.8 nM
CC(C)(C)n1ncc2c1C(=O)CC1(CCN(C(=O)c3c[nH]c4ncccc34)CC1)C2 [Example 11A-19] | 71.6 nM | 242 nM
CC(C)n1ncc2c1C(=O)CC1(CCN(C(=O)c3cc4cnccc4[nH]3)CC1)C2 [Example 11A-56] | 359 nM | 1010 nM
CC(C)n1ncc2c1C(=O)CC1(CCN(C(=O)c3cnc4[nH]ncc4c3)CC1)C2 [Example 2A-1, 1-Isopropyl-1′-(1H-pyrazolo[3,4-b]pyridine-5-carbonyl)-4,6-dihydrospiro[indazole-5,4′-piperidin]-7(1H)-one] | 69.7 nM | 282 nM
Cc1nc2c(Cl)cc(C(=O)N3CCC4(CC3)CC(=O)c3c(cnn3C(C)(C)C)C4)cc2[nH]1 [Example 2A-53] | 17.2 nM | 39.6 nM

Structure (SMILES) | IC50 [1] | IC50 [2]
CC(C)(C)n1ncc2c1C(=O)CC1(CCN(C(=O)c3cccc(-n4cccn4)c3)CC1)C2 [Example 11A-17] | 48.4 nM | 129 nM
CC(C)n1ncc2c1C(=O)CC1(CCN(C(=O)c3cccnc3C(N)=O)CC1)C2 [Example 11A-10] | 789 nM | 6670 nM
CC(C)n1ncc2c1C(=O)CC1(CCN(C(=O)c3cnc4cn[nH]c4c3)CC1)C2 [Example 11A-31] | 83.4 nM | 117 nM
CC(C)(C)n1ncc2c1C(=O)CC1(CCN(C(=O)c3nn(-c4ccccc4)nc3N)CC1)C2 [Example 11A-12] | 850 nM | 152 nM
CC(C)n1ncc2c1C(=O)CC1(CCN(C(=O)c3ccc4cnccc4n3)CC1)C2 [Example 2A-63] | 3200 nM | 9330 nM
Cc1nn(C)c(C(=O)N2CCC3(CC2)CC(=O)c2c(cnn2C(C)(C)C)C3)c1O [Example 11A-25] | 745 nM | 331 nM
CC(C)n1ncc2c1C(=O)CC1(CCN(C(=O)c3cnc4[nH]cnc4c3)CC1)C2 [Example 11A-33] | 93.1 nM | 272 nM
CC(C)(C)n1ncc2c1C(=O)CC1(CCN(C(=O)c3cnc(-c4ccccn4)[nH]3)CC1)C2 [Example 11A-50] | 371 nM | 581 nM
CC(C)n1ncc2c1C(=O)CC1(CCN(C(=O)c3cc4ncccc4[nH]3)CC1)C2 [Example 11A-48] | 41.2 nM | 78.9 nM
CC(C)(C)n1ncc2c1C(=O)CC1(CCN(C(=O)c3cc4cccnc4[nH]3)CC1)C2 [Example 12A-1, 1-tert-butyl-1′-(1H-pyrrolo[2,3-b]pyridine-2-carbonyl)-4,6-dihydrospiro[indazole-5,4′-piperidin]-7(1H)-one] | 67.3 nM | 39.5 nM
CC(C)(C)n1ncc2c1C(=O)CC1(CCN(C(=O)c3ccc4cc[nH]c(=O)c4c3)CC1)C2 [Example 2A-31] | 28.8 nM | 43.5 nM
CCCn1ncc2c1C(=O)CC1(CCN(C(=O)c3ccc(Cl)c(C)c3)CC1)C2 [Example 2A-9] | 1850 nM | 4260 nM
CC(C)(C)n1ncc2c1C(=O)CC1(CCN(C(=O)c3cc(F)c4nc[nH]c4c3)CC1)C2 [Example 2A-51] | 29.9 nM | 72.7 nM
CC(C)n1ncc2c1C(=O)CC1(CCN(C(=O)c3ccc4c(c3)ncn4C)CC1)C2 [Example 11A-55] | 60.4 nM | 213 nM
CC(C)n1ncc2c1C(=O)CC1(CCN(C(=O)c3ccc(-c4ncc[nH]4)cc3)CC1)C2 [Example 11A-1, 1′-(4-(1H-imidazol-2-yl)benzoyl)-1-isopropyl-4,6-dihydrospiro[indazole-5,4′-piperidin]-7(1H)-one] | 31.8 nM | 147 nM
CNc1nc(C)ccc1C(=O)N1CCC2(CC1)CC(=O)c1c(cnn1C(C)C)C2 [Example 11A-46] | 97.1 nM | 391 nM
Cc1cc(C(=O)N2CCC3(CC2)CC(=O)c2c(cnn2CC2CCCO2)C3)ccc1Cl (centres unmarked) [Example 2A-2] | 3570 nM | 8300 nM

Source: patent US9139587B2, “N1-pyrazolospiroketone acetyl-CoA carboxylase inhibitors” (Pfizer Inc., priority 2009, dated 2015)
